Experiments:
[1] = Durability T1/2 by xenon fadometer FAC-25AX-HC; format: physicochemical; conditions: in polymer
Method: (§1) 0.05 Parts of the chromene compound obtained in Example 1 was added to 70 parts of a tetraethylene glycol dimethacrylate, 15 parts of a triethylene glycol dimethacrylate, 10 parts of a glycidyl methacrylate and 5 parts of a 2-hydroethyl methacrylate, and was mixed to a sufficient degree. The mixture solution was poured into a mold constituted by a glass plate and a gasket made from an ethylene/vinyl acetate copolymer and then polymerized. The polymerization was conducted by using an air furnace while gradually raising the temperature up to 30° C. to 90° C. over a period of 18 hours, the temperature being maintained at 90° C. for two hours. After the polymerization, the polymer was taken out from the glass mold.
(§2) Color fading rate [t1/2 ]: Time required by the polymer irradiated for 120 seconds until the absorbancy decreases down to one-half of [ε(120)-ε(0)]. Durability [T1/2 ]: Time required until the absorbency at the maximum absorption wavelength decreases down to 1/2 of the initial absorbency as measured by using a xenon fadometer FAC-25AX-HC manufactured by Suga Shikenki Co.
(§3) The photochromic polymers were obtained in the same manner as described above but using the compounds obtained in Examples 2 to 33 as chromene compounds. For the purpose of comparison, properties of the compounds represented by the following formulas (A), (B), (D) and (E) were also shown in Table 3. [drawing 110]

[2] = Photochromic properties of polymer (2 mm thick) containing the chromene compound, xenon lamp irradiation 120 seconds; format: physicochemical; parameters: key to Color density ε(120)-ε(0): absorbance at λmax after 120 s irradiation minus before, ε(120)-ε(0); conditions: for Color density ε(120)-ε(0): 120 seconds irradiation, 20° C.±1° C.; for Color density ε(120)-ε(0) / ε(0): absorbancy of the polymer not irradiated (initial color): at λmax; for Color fading rate t1/2: time until absorbancy decreases to one-half of [ε(120)-ε(0)]: after 120 seconds irradiation; for Maximum absorption wavelength λMax (developed color tone): polymer after developing color
Method: as §1
The obtained polymer (2 mm thick) was irradiated with light from a xenon lamp L-2480 (300 W) SHL-100 manufactured by Hamamatsu Photonics Co. through an Aero Mass filter (manufactured by Corning Co.) for 120 seconds under the conditions of 20° C.±1° C., beam intensities of 365 nm=2.4 mW/cm^2 and […]=24 μW/cm^2 on the polymer surface to develop color and to measure photochromic properties. The photochromic properties were expressed as described below.
Maximum absorption wavelength (λmax): λmax of the polymer after it has developed color was found by using a spectrophotometer (instantaneous multi-channel photodetector MCPD1000) manufactured by Otsuka Denshi Kogyo Co.
ε(120): Absorbancy of the polymer using light of a maximum absorption wavelength after it was irradiated under the above-mentioned conditions for 120 seconds.
ε(0): Absorbancy of the polymer that has not been irradiated using light of a wavelength same as the maximum absorption wavelength of light with which the polymer was irradiated.
ε(120)-ε(0): Color density
as §2, §3

Row | Durability T1/2: time until absorbancy at maximum absorption wavelength decreases to 1/2 of the initial [1] | Color density ε(120)-ε(0) [2] | Color fading rate t1/2: time until absorbancy decreases to one-half of [ε(120)-ε(0)] [2] | ε(0): absorbancy of the polymer not irradiated (initial color) [2] | Maximum absorption wavelength λMax (developed color tone) [2] | SMILES
1 | 20.6 days | 1.11 | 68 s | 0.04 | 460 nm | Fc1cc2ccccc2cc1C1(c2cccs2)C=Cc2c(ccc3ccccc23)O1 (centres unmarked) [Compound 33]
2 | 22.5 days | 1.23 | 59 s | 0.06 | 492 nm | C1=CC(c2ccco2)(c2cc3ccccc3o2)Oc2ccc3ccccc3c21 (centres unmarked) [Compound 25]

More lines, now with the values behind:

Row | SMILES | Durability T1/2: time until absorbancy at maximum absorption wavelength decreases to 1/2 of the initial [1] | Color density ε(120)-ε(0) [2] | Color fading rate t1/2: time until absorbancy decreases to one-half of [ε(120)-ε(0)] [2] | ε(0): absorbancy of the polymer not irradiated (initial color) [2] | Maximum absorption wavelength λMax (developed color tone) [2]
3 | COc1ccc2c3c(ccc2c1)OC(c1cccs1)(c1cccc2ccccc12)C=C3 (centres unmarked) [Compound 17] | 19.6 days | 1.23 | 84 s | 0.05 | 502 nm
4 | Fc1ccsc1C1(c2ccc3ccccc3c2)C=Cc2c(ccc3ccccc23)O1 (centres unmarked) [Compound 18] | 21 days | 1.15 | 68 s | 0.04 | 456 nm
5 | COc1ccc2c3c(ccc2c1)OC(c1cncs1)(c1cscc1C)C=C3 (centres unmarked) [Compound 19] | 18.8 days | 1.46 | 75 s | 0.06 | 490 nm
6 | Cn1cccc1C1(c2ccc3ccccc3c2)C=Cc2c(ccc3ccccc23)O1 (centres unmarked) [Compound 8] | 18.3 days | 1.00 | 60 s | 0.06 | 486 nm
7 | Fc1sccc1C1(c2ccc3ccccc3c2)C=Cc2c(ccc3ccccc23)O1 (centres unmarked) [Compound 7] | 20.8 days | 1.30 | 62 s | 0.05 | 456 nm

— patent US5808100A, “Chromene compounds and photochromic materials” (Tokuyama Corporation, priority 1995, dated 1998)
